38 molecules from patent publication US20090005363A1, “Organic Compounds” (priority 2005, published 2009) can be followed below.

For the assay, the target named is mGluR5 (Homo sapiens, UniProt P41594). Description: inhibition of the glutamate induced elevation of intracellular Ca2+ concentration. Particulars: for inhibition at 10 µM: read-out: mGluR5 Activity inh. at 10 μM [%]; for mGluR5 Activity inh. at 10 μM [%]: inhibition of glutamate induced elevation of intracellular Ca2+ concentration at 10 μM.

Where a name gives a salt, the structure may show the parent alone.

Chain of mGluR5 (P41594 21-1180 isoform P41594-2 limits assumed): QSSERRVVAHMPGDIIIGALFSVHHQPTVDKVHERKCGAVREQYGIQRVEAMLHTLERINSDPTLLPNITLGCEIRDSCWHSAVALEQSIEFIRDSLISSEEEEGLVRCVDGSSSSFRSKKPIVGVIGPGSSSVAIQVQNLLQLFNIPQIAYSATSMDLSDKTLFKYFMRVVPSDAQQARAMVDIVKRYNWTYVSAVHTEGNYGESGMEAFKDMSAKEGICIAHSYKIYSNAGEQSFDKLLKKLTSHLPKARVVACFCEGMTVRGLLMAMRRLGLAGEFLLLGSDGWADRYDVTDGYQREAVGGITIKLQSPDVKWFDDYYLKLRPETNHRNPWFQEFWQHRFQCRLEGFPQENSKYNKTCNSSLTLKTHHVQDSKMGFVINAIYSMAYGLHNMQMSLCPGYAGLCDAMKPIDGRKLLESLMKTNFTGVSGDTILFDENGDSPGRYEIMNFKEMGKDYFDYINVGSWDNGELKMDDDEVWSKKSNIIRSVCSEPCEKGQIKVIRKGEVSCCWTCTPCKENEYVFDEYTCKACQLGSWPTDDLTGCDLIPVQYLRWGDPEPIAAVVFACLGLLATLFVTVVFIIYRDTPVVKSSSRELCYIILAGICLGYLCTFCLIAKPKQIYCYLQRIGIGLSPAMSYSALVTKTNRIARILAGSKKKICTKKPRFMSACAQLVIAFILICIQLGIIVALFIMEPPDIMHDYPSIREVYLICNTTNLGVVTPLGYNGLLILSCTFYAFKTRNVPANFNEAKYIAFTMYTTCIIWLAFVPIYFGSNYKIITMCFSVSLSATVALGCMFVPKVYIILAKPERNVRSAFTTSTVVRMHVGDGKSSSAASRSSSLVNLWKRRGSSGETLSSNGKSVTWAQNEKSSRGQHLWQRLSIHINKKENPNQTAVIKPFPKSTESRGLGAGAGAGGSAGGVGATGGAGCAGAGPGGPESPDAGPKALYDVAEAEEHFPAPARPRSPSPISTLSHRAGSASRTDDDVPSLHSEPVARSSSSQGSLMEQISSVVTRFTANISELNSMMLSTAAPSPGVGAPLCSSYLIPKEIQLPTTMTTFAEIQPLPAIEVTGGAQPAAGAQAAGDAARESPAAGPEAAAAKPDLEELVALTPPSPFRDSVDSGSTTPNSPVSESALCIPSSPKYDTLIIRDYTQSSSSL
Excerpt: This can be determined in vitro for example at recombinant human metabotropic glutamate receptors, especially PLC-coupled subtypes thereof such as mGluR5, using different procedures like, for example, measurement of the inhibition of the agonist induced elevation of intracellular Ca^2+ concentration in accordance with L. P. Daggett et al., Neuropharm.

`O=C(c1ccc(Nc2ccc(Cl)cc2)nn1)N1CCc2ccccc2C1` [Compound 8.4, [6-(4-Chloro-phenylamino)-pyridazin-3-yl]-(3,4-dihydro-1H-isoquinolin-2-yl)-methanone]: the inhibition at 10 µM amounted to 89%.

With `CCC(CC)C1OCCCN1C(=O)c1cnc(Nc2ccc(C)nc2)c(Cl)c1` (centres unmarked) [Compound 4.69, [5-Chloro-6-(6-methyl-pyridin-3-ylamino)-pyridin-3-yl]-[2-(1-ethyl-propyl)-[1,3]oxazinan-3-yl]-methanone], the inhibition at 10 µM turned out to be 99%.

For `Cc1ccc(Nc2ncc(C(=O)N3CC4CCC3C4)cc2Cl)cn1` (racemic) [Compound 2.13, rac-(2-Aza-bicyclo[2.2.1]hept-2-yl)-[5-chloro-6-(6-methyl-pyridin-3-ylamino)-pyridin-3-yl]-methanone], the inhibition at 10 µM worked out at 96%.

In the case of `Cc1ccc(Nc2ncc(C(=O)N3CCCCC3c3ccccc3)cc2Cl)cn1` (centres unmarked) [Compound 4.41, [5-Chloro-6-(6-methyl-pyridin-3-ylamino)-pyridin-3-yl]-(2-phenyl-piperidin-1-yl)-methanone], the inhibition at 10 µM came out at 96%. Turning to `N#Cc1ccc(Nc2ccc(C(=O)N3CCCCC3)cn2)cc1` [Compound 1.7, 4-[5-(Piperidine-1-carbonyl)-pyridin-2-ylamino]-benzonitrile], the inhibition at 10 µM came out at 77%. Still for that read-out and setting: with `Cc1ccc(Nc2ncc(C(=O)N3CCC[C@@H](C)[C@H]3C)cc2Cl)cn1` [Compound 4.22, [5-Chloro-6-(6-methyl-pyridin-3-ylamino)-pyridin-3-yl]-((2R,3R)-2,3-dimethyl-piperidin-1-yl)-methanone] the figure was 98%.

On to `Cc1ccc(Nc2ccc(C(=O)N3CCCCC3)cn2)cn1` [Compound 4.1, [6-(6-Methyl-pyridin-3-ylamino)-pyridin-3-yl]-piperidin-1-yl-methanone], for which the inhibition at 10 µM stood at 99%. As to `CCOCC1CCCCN1C(=O)c1cnc(Nc2ccc(C)nc2)c(Cl)c1` (centres unmarked) [Compound 4.60, [5-Chloro-6-(6-methyl-pyridin-3-ylamino)-pyridin-3-yl]-(2-ethoxymethyl-piperidin-1-yl)-methanone], the inhibition at 10 µM came out at 97%.

For `O=C(c1ccc(Nc2cccnc2)nc1)N1CCCCCC1` [Compound 2.2, Azepan-1-yl-[6-(pyridin-3-ylamino)-pyridin-3-yl]-methanone], the inhibition at 10 µM stood at 46%. Still for that read-out and setting: the result for `COc1ccc(Nc2ccc(C(=O)N3CCCCC3C)cn2)cc1` (centres unmarked) [Compound 1.11, [6-(4-Methoxy-phenylamino)-pyridin-3-yl]-(2-methyl-piperidin-1-yl)-methanone hydrochloride] reads 71%; that for `Cc1ccc(Nc2ncc(C(=O)N3CCCCC3C(F)C(C)F)cc2Cl)cn1` (centres unmarked) [Compound 4.63, [5-Chloro-6-(6-methyl-pyridin-3-ylamino)-pyridin-3-yl]-[2-(1,2-difluoro-propyl)-piperidin-1-yl]-methanone], 100%; that for `Cc1ccc(Nc2ncc(C(=O)N3CCCCC3)cc2C)cn1` [Compound 9.1, [5-Methyl-6-(6-methyl-pyridin-3-ylamino)-pyridin-3-yl]-piperidin-1-yl-methanone], 97%. On to `O=C(c1ccc(Nc2ccc(Cl)cc2)nc1)N1CCCC2CCCCC21` (centres unmarked) [Compound 4.8, [6-(4-Chloro-phenylamino)-pyridin-3-yl]-(octahydro-quinolin-1-yl)-meth anone], for which the inhibition at 10 µM is 94%. Take `Cc1ccc(Nc2ncc(C(=O)N3C(C)(C)CCCC3(C)C)cc2Cl)cn1` [Compound 4.49, [5-Chloro-6-(6-methyl-pyridin-3-ylamino)-pyridin-3-yl]-(2,2,6,6-tetramethyl-piperidin-1-yl)-methanone]: the inhibition at 10 µM was 66%. The same measure, in the same setting: with `Cc1ccc(Nc2ncc(C(=O)N3CCCCC3c3ccc(C)o3)cc2Cl)cn1` (centres unmarked) [Compound 4.45, [5-Chloro-6-(6-methyl-pyridin-3-ylamino)-pyridin-3-yl]-[2-(5-methyl-furan-2-yl)-piperidin-1-yl]-methanone] the figure was 90%; with `CC1CCCN(C(=O)c2cnc(Nc3ccc(Cl)nc3)c(Cl)c2)C1` (centres unmarked) [Compound 7.1, [5-Chloro-6-(6-chloro-pyridin-3-ylamino)-pyridin-3-yl]-(3-methyl-piperidin-1-yl)-methanone], 98%; with `Cc1ccc(Nc2ncc(C(=O)N3CCCCC3c3ncco3)cc2Cl)cn1` (centres unmarked) [Compound 4.46, [5-Chloro-6-(6-methyl-pyridin-3-ylamino)-pyridin-3-yl]-(2-oxazol-2-yl-piperidin-1-yl)-methanone], 94%. Turning to `C[C@H]1CCCN(C(=O)c2ccc(Nc3ccc(Cl)cc3)nc2)C1` [Compound 1.12a, [6-(4-Chloro-phenylamino)-pyridin-3-yl]-(S-3-methyl-piperidin-1-yl)-methanone], the “mGluR5 Activity inh. at 10 μM [%]” value turned out to be 99%.

Take `Cc1ccc(Oc2ncc(C(=O)N3CCCCC3)cc2Cl)cn1` [Compound 3.2, [5-Chloro-6-(6-methyl-pyridin-3-yloxy)-pyridin-3-yl]-piperidin-1-yl-methanone]: the inhibition at 10 µM came to 97%. Same read-out and setting: the result for `CCCC1CCC(F)CN1C(=O)c1cnc(Nc2ccc(C)nc2)c(Cl)c1` (centres unmarked) [Compound 4.62, [5-Chloro-6-(6-methyl-pyridin-3-ylamino)-pyridin-3-yl]-(5-fluoro-2-propyl-piperidin-1-yl)-methanone] reads 99%; that for `Cc1ccc(Nc2ccc(C(=O)N3CCCCC3C)cn2)cc1` (centres unmarked) [Compound 1.10, (2-Methyl-piperidin-1-yl)-(6-p-tolylamino-pyridin-3-yl)-methanone], 94%; that for `Cc1ccc(Nc2ncc(C(=O)N3CCSCC3)cc2Cl)cn1` [Compound 2.15, [5-Chloro-6-(6-methyl-pyridin-3-ylamino)-pyridin-3-yl]-thiomorpholin-4-yl-methanone], 100%. The same measure, in the same setting: the result for `C[C@@H]1CCCN(C(=O)c2ccc(Nc3ccc(Cl)cc3)nc2)C1` [Compound 1.12b, [6-(4-Chloro-phenylamino)-pyridin-3-yl]-(R-3-methyl-piperidin-1-yl)-methanone] reads 100%; that for `CCCC1CCCCCN1C(=O)c1cnc(Nc2ccc(C)nc2)c(Cl)c1` (centres unmarked) [Compound 4.76, [5-Chloro-6-(6-methyl-pyridin-3-ylamino)-pyridin-3-yl]-(2-propyl-azepan-1-yl)-methanone], 92%. Still for that read-out and setting: the result for `CCCCC1CCCCN1C(=O)c1cnc(Nc2ccc(C)nc2)c(Cl)c1` (centres unmarked) [Compound 4.38, (2-Butyl-piperidin-1-yl)-[5-chloro-6(6-methyl-pyridin-3-ylamino)-pyridin-3-yl]-methanone] reads 98%; that for `CCC1C(C)CCCN1C(=O)c1cnc(Nc2ccc(C)nc2)c(Cl)c1` (centres unmarked) [Compound 4.40, [5-Chloro-6-(6-methyl-pyridin-3-ylamino)-pyridin-3-yl]-(2-ethyl-3-methyl-piperidin-1-yl)-methanone], 98%. In the case of `Cc1ccc(Nc2ncc(C(=O)N3CCC[C@@H]4CCC[C@@H]43)cc2Cl)cn1` [Compound 4.26, [5-Chloro-6-(6-methyl-pyridin-3-ylamino)-pyridin-3-yl]-(4aS,7aS)-octahydro-[1]pyridin-1-yl-methanone], the “mGluR5 Activity inh. at 10 μM [%]” value amounted to 93%. On to `CC[C@H]1CCCCN1C(=O)c1cnc(Nc2ccc(C)nc2)c(Cl)c1` [Compound 4.19, [5-Chloro-6-(6-methyl-pyridin-3-ylamino)-pyridin-3-yl]-((S)-2-ethyl-piperidin-1-yl)-methanone], for which the inhibition at 10 µM was determined as 97%. Regarding `CCCC1CCCC(C)N1C(=O)c1cnc(Nc2ccc(C)nc2)c(Cl)c1` (centres unmarked) [Compound 4.50, [5-Chloro-6-(6-methyl-pyridin-3-ylamino)-pyridin-3-yl]-(2-methyl-6-propyl-piperidin-1-yl)-methanone], the inhibition at 10 µM was 98%. The same measure, in the same setting: the result for `COC1CCCN(C(=O)c2ccc(Nc3ccc(Cl)cc3)nc2)C1` (racemic) [Compound 4.7, rac-[6-(4-Chloro-phenylamino)-pyridin-3-yl]-(3-methoxy-piperidin-1-yl)-methanone] reads 87%. Same read-out and setting: with `CC1CCCN(C(=O)c2ccc(Nc3ccc(Cl)cc3)nc2)C1` (racemic) [Compound 1.12, rac-[6-(4-Chloro-phenylamino)-pyridin-3-yl]-(3-methyl-piperidin-1-yl)-methanone] the figure was 93%; with `Cc1ccc(Nc2ccc(C(=O)N3CCC[C@@H](C)C3)cn2)cn1` [Compound 4.13b, (R-3-Methyl-piperidin-1-yl)-[6-(6-methyl-pyridin-3-ylamino)-pyridin-3-yl]-methanone], 96%. Take `CCCC1CCCCN1C(=O)c1cnc(Nc2ccc(C)nc2)c(Cl)c1` (centres unmarked) [Compound 4.34, [5-Chloro-6-(6-methyl-pyridin-3-ylamino)-pyridin-3-yl]-(2-propyl-piperidin-1-yl)-methanone]: the inhibition at 10 µM is 98%. The same measure, in the same setting: the result for `CC[C@@H]1CCCCN1C(=O)c1cnc(Nc2ccc(Cl)cc2)c(Cl)c1` [Compound 4.54, [5-Chloro-6-(4-chloro-phenylamino)-pyridin-3-yl]-((R)-2-ethyl-piperidin-1-yl)-methanone] reads 97%. Turning to `CCC1CCCCN1C(=O)c1cnc(Nc2ccc(C)nc2)c(Cl)c1` (centres unmarked) [Compound 4.17, [5-Chloro-6-(6-methyl-pyridin-3-ylamino)-pyridin-3-yl]-(2-ethyl-piperidin-1-yl)-methanone], the inhibition at 10 µM was determined as 98%. As to `O=C(c1ccc(Nc2ccc(Cl)cc2)nn1)N1CCCCC1` [Compound 8.1, [6-(4-Chloro-phenylamino)-pyridazin-3-yl]-piperidin-1-yl-methanone], the inhibition at 10 µM was determined as 91%. On the same count and under the same terms, the result for `O=C(c1cnc(Nc2ccc(Cl)cc2)c(Cl)c1)N1CCCCCC1` [Compound 5.1, Azepan-1-yl-[5-chloro-6-(4-chloro-phenylamino)-pyridin-3-yl]-methanone] reads 98%; that for `CCC1OCCCCN1C(=O)c1cnc(Nc2ccc(C)nc2)c(Cl)c1` (centres unmarked) [Compound 4.65, [5-Chloro-6-(6-methyl-pyridin-3-ylamino)-pyridin-3-yl]-(2-ethyl-[1,3]oxazepan-3-yl)-methanone], 83%.
